≈ marks a conversion by molar mass, not a printed value.

The subject of test [1] is P. fluorescens. Further details: method as in doi:10.1016/j.lwt.2014.05.036. The note with it: cited from earlier work.
The test system of test [2] is S. dysenteriae. Further details: method as in doi:10.1016/j.lwt.2014.05.036. The note with it: cited from earlier work.
The subject of test [3] is S. aureus. Further details: method as in doi:10.1016/j.lwt.2014.05.036. The settings on record: cited from earlier work.
The test system of test [4] is S. Typhimurium. Further details: method as in doi:10.1016/j.lwt.2014.05.036. The settings on record: cited from earlier work.
Test [5] has as its system L. monocytogenes. Further details: method as in doi:10.1016/j.lwt.2014.05.036. The settings on record: cited from earlier work.
Test [6] concerns E. coli. Further details: method as in doi:10.1016/j.lwt.2014.05.036. The note with it: cited from earlier work.
On the set-up of test [7]: method as in doi:10.1016/j.foodcont.2011.06.017. The note with it: cited from earlier work.
On the set-up of test [8]: method as in doi:10.1016/j.foodcont.2011.06.017. The note with it: cited from earlier work. The source holds these as a separate data set.
On the set-up of test [9]: method as in doi:10.1016/j.foodcont.2011.06.017. The settings on record: cited from earlier work. The source holds these as a separate data set.
The test system of test [10] is Salmonella Typhimurium ATCC 14028. Put plainly: agar disk diffusion test. It counts as cell-based. The settings on record: Salmonella enterica; S. Typhimurium, 1.0 × 10^8 CFU.mL^−1; 20 μL compound diluted in DMSO (1:1) per 6 mm disc; streptomycin 10 µg; mean of two repetitions. The text has this:
(§1) To evaluate the antimicrobial potential of the synthesized compounds, the following reference strains of bacteria, that are economically important in foods, were employed: Gram-positive Listeria monocytogenes ATCC 7644, Staphylococcus aureus ATCC 25923, and Bacillus cereus ATCC 11778; Gram-negative Salmonella Typhimurium ATCC 14028, Escherichia coli O157: H7 NCTC 12900 and the clinically important Pseudomonas aeruginosa ATCC 15442.
(§2) The antimicrobial activity assay using the disk diffusion test was realized using the methodology that is recommended by the Clinical Laboratory Standards Institute (CLSI). The determination of the minimum inhibitory concentration (MIC) and minimum bactericidal concentration (MBC) was performed using the macro dilution tube method, in accordance with Rota et al., with modifications. Details of these assays are provided in the Supplemental Material. […]
(§3) 2.1. Antimicrobial activity assay using the disk diffusion test
(§4) The disk diffusion test followed the methodology recommended by the Clinical Laboratory Standards Institute CLSI [4]. The inoculum was standardized by standard McFarland to the concentration of 10^8 CFU.mL−1 and spread on the surface of a Petri dish containing Mueller‐Hinton (MH) agar. Then, the paper disc (6 mm) was put on a plate impregnated with 20 μL of the testing compound previously diluted in DMSO (1:1) and incubated at 37 °C for 24 hours. Zone of inhibition ≥20 mm were considered as strong inhibition, <20–12 mm as moderate inhibition, and <12 mm no inhibition. A positive control with streptomycin antibiotic (10 μg) and a negative one, with paper discs impregnated with distilled water, were used […]
(§5) 2.4. Radical Scavenging Activity […]
(§6) The ABTS radical scavenging activity was determined according to the method described by Erel. Different concentrations of compounds 5a–d and 10 (10–500 μ M) were mixed with the ABTS+ solution, and the decrease in the absorbance at 734 nm was recorded.
On the technique in general: A growth-free zone around the sample is the usual read-out of agar diffusion tests.

The subject of test [11] is Pseudomonas aeruginosa ATCC 15442. Briefly: agar disk diffusion test. It counts as cell-based. The settings on record: Pseudomonas aeruginosa, ATCC15442; P. aeruginosa, 1.0 × 10^8 CFU.mL^−1; 20 μL compound diluted in DMSO (1:1) per 6 mm disc; streptomycin 10 µg; mean of two repetitions.
Excerpt: as §1, §2, §3, §4, §5, §6

Test [12] concerns Escherichia coli O157: H7 NCTC 12900. Briefly: agar disk diffusion test. It counts as cell-based. The note with it: Escherichia coli, NCTC12900; E. coli O157:H7, 1.0 × 10^8 CFU.mL^−1; 20 μL compound diluted in DMSO (1:1) per 6 mm disc; streptomycin 10 µg; mean of two repetitions.
Excerpt: as §1, §2, §3, §4, §5, §6

The test system of test [13] is Staphylococcus aureus ATCC 25923. Briefly: agar disk diffusion test. The settings on record: Staphylococcus aureus, ATCC25923; S. aureus, 1.0 × 10^8 CFU.mL^−1; 20 μL compound diluted in DMSO (1:1) per 6 mm disc; streptomycin 10 µg; mean of two repetitions. It counts as cell-based.
Excerpt: as §1, §2, §3, §4, §5, §6

For test [14], the system named is Listeria monocytogenes ATCC 7644. Briefly: agar disk diffusion test. The settings on record: Listeria monocytogenes, ATCC7644; L. monocytogenes, 1.0 × 10^8 CFU.mL^−1; 20 μL compound diluted in DMSO (1:1) per 6 mm disc; streptomycin 10 µg; mean of two repetitions. It counts as cell-based.
Excerpt: as §1, §2, §3, §4, §5, §6

The test system of test [15] is Bacillus cereus ATCC 11778. Briefly: agar disk diffusion test. Format: cell-based. The settings on record: Bacillus cereus, ATCC11778; B. cereus, 1.0 × 10^8 CFU.mL^−1; 20 μL compound diluted in DMSO (1:1) per 6 mm disc; streptomycin 10 µg; mean of two repetitions.
Excerpt: as §1, §2, §3, §4, §5, §6

For the compound `CC(C)=CCCC(C)(CC=O)Sc1ccc(Cl)cc1` (stereo not drawn) [3-(p-chlorophenyl)thio citronellal], the MIC in test [1] is on record as 4.2 mM (≈ 1250 µg/mL); in test [2], 4.2 mM (≈ 1250 µg/mL); in test [3], 2.1 mM (≈ 623 µg/mL); in [4] it was 4.2 mM (≈ 1250 µg/mL); in test [5], 2.1 mM (≈ 623 µg/mL); in [6], 4.2 mM (≈ 1250 µg/mL).

For the compound `CC(C)=CCC[C@@H](C)C(C=O)[Se]c1ccccc1` (stereo partly drawn) [3b, α-phenylselenocitronellal], the “activity in the ABTS assay (in words)” value in test [7] was “inactive”. In addition, the “activity in the DPPH assay (in words)” value in [8] was “inactive”. The “concentrations with significant reducing power in the FRAP assay” value in test [9] is at least 500 mM.

Take `[H]/N=C(/N)N[C@H]1[C@H](O)[C@@H](O)[C@H](O[C@@H]2O[C@@H](C)[C@](O)(C=O)[C@H]2O[C@@H]2O[C@@H](CO)[C@H](O)[C@@H](O)[C@@H]2NC)[C@@H](N/C(N)=N\[H])[C@@H]1O` [Streptomycin, reference compound]: the zone of inhibition at 10 µg/disc in [10] was found to be 18 mm; in test [11], 13 mm; in test [12], 24 mm; in test [13] it was 21 mm; in [14], 21 mm; in [15] it was 26 mm.

For the compound `CC(C)=CCC[C@@H](C)CC=O` [compound 1, (R)-citronellal], the “activity in the ABTS assay (in words)” value in test [7] was “inactive”. In test [8], the “activity in the DPPH assay (in words)” value is “inactive”. In addition, the “effect in the FRAP assay (in words)” value in test [9] (at the same concentrations (equal and higher than 500 mM)) is recorded as “did not present any effect”.

For orientation: MIC means the least concentration at which growth counts as inhibited. A word on the zone of inhibition: it is the size of the clear area around the sample on an inoculated plate. The low end stands for little suppression of growth, the high end for wide suppression of growth.

The values are drawn from paper PMC5590075, “Synthesis, Antimicrobial, and Antioxidant Activities of Chalcogen-Containing Nitrone Derivatives from (R)-citronellal” (Medicines, 2017).
